Test results published in the supplement of paper PMC6045584.
± gives the standard deviation of the averaged measurements.

Each test system was assayed with CC[C@@]1(O)C(=O)OCc2c1cc1n(c2=O)Cc2cc3ccccc3nc2-1 [CAMPTOTHECIN] (assay: surviving fraction relative to DMSO-only wells; higher = less growth inhibition). Details: 50 nM; exposure time: 5 days.
How it was run: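 Inhibitors at 0.5, 1, 5, 10, 50, 100, 500 and 1000 nM were applied continuously for five days to tumour cell lines seeded in log phase at 250–500 cells per well in 384-well plates 24 hours earlier. Viability was measured by CellTiter-Glo luminescence and expressed as surviving fraction relative to the median of DMSO-only wells. Luminescence was taken after 10 minutes at room temperature.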
Test System COLO320DM LARGE INTESTINE has a surviving fraction of 0.137 ± 0.003. Work on DU4475 BREAST yielded a surviving fraction of 0.0357 ± 0.0042. G292 BONE was tested, and the surviving fraction was 0.292 ± 0.0027. With H23 LUNG the surviving fraction was 0.0917 ± 0.006. HCC38 BREAST gave a surviving fraction of 0.0953 ± 0.0049. HCC1806 BREAST gave a surviving fraction of 0.074 ± 0.0056. HOS BONE was tested, and the surviving fraction was 0.1 ± 0.0059. HOSMNG BONE gave a surviving fraction of 0.322 ± 0.035. For HSSYII SYNOVIAL, the surviving fraction was 0.0273 ± 0.0023. HU09 BONE showed a surviving fraction of 0.026 ± 0.0027. HUO3N1 BONE showed a surviving fraction of 0.228 ± 0.016. JIMT1 BREAST was tested, and the surviving fraction was 0.433 ± 0.024. LNCAP PROSTATE gave a surviving fraction of 0.0637 ± 0.0064. In the case of MDAMB134 BREAST, the surviving fraction is reported as 0.602 ± 0.0085. Test System MDAMB231 BREAST has a surviving fraction of 0.276 ± 0.0089. Test System MDAMB361 BREAST has a surviving fraction of 0.774 ± 0.071. With MDAMB436 BREAST the surviving fraction was 0.2 ± 0.017. Work on MDAMB468 BREAST yielded a surviving fraction of 0.158 ± 0.011. Test System MHM BONE has a surviving fraction of 0.462 ± 0.022. NCIH441 LUNG was tested, and the surviving fraction was 0.201 ± 0.02. Test System NY BONE has a surviving fraction of 0.067 ± 0.0061. In the case of OS25HAL BONE, the surviving fraction is reported as 0.055 ± 0.001. For OSHN BONE, the surviving fraction was 0.0807 ± 0.0076. With SKBR3 BREAST the surviving fraction was 0.222 ± 0.01. SUM149.B1*.S BREAST gave a surviving fraction of 0.0407 ± 0.0027.

Same assay, conditions: 100 nM; exposure time: 5 days
Test System 22RV1 PROSTATE has a surviving fraction of 0.189 ± 0.22. With 93VU HEADNECK the surviving fraction was 0.277 ± 0.043. A549 LUNG gave a surviving fraction of 0.121 ± 0.002. CAL51 BREAST gave a surviving fraction of 0.0333 ± 0.0025. CAL72 BONE showed a surviving fraction of 0.118 ± 0.011. CAL120 BREAST gave a surviving fraction of 0.105 ± 0.0043. Test System CASKI CERVIX has a surviving fraction of 0.0273 ± 0.00058. In the case of COLO320DM LARGE INTESTINE, the surviving fraction is reported as 0.263 ± 0.0072. With DU4475 BREAST the surviving fraction was 0.0227 ± 0.0045. G292 BONE gave a surviving fraction of 0.18 ± 0.012. H23 LUNG showed a surviving fraction of 0.0627 ± 0.0011. HCC38 BREAST showed a surviving fraction of 0.0423 ± 0.009. In the case of HCC1806 BREAST, the surviving fraction is reported as 0.044 ± 0.0017. HOS BONE was tested, and the surviving fraction was 0.056 ± 0.005. For HOSMNG BONE, the surviving fraction was 0.214 ± 0.0082. HSSYII SYNOVIAL was tested, and the surviving fraction was 0.0507 ± 0.0042. HU09 BONE showed a surviving fraction of 0.0207 ± 0.00058. Test System HUO3N1 BONE has a surviving fraction of 0.203 ± 0.025. Work on JIMT1 BREAST yielded a surviving fraction of 0.394 ± 0.034. In the case of LNCAP PROSTATE, the surviving fraction is reported as 0.0507 ± 0.0067. MDAMB134 BREAST was tested, and the surviving fraction was 0.594 ± 0.0057. MDAMB231 BREAST gave a surviving fraction of 0.211 ± 0.007. MDAMB361 BREAST showed a surviving fraction of 0.702 ± 0.032. MDAMB436 BREAST showed a surviving fraction of 0.177 ± 0.0068. With MDAMB468 BREAST the surviving fraction was 0.0843 ± 0.0055. Test System MHM BONE has a surviving fraction of 0.334 ± 0.017. Test System NCIH441 LUNG has a surviving fraction of 0.114 ± 0.016. With NY BONE the surviving fraction was 0.0407 ± 0.0015. OS25HAL BONE showed a surviving fraction of 0.0397 ± 0.0093. OSHN BONE gave a surviving fraction of 0.0593 ± 0.012. SKBR3 BREAST was tested, and the surviving fraction was 0.166 ± 0.013. With SUM149.B1*.S BREAST the surviving fraction was 0.0422 ± 0.0024.

Same assay, conditions: 500 nM; exposure time: 5 days
22RV1 PROSTATE showed a surviving fraction of 0.24 ± 0.28. For 93VU HEADNECK, the surviving fraction was 0.103 ± 0.018. With A549 LUNG the surviving fraction was 0.037 ± 0.003. For CAL51 BREAST, the surviving fraction was 0.0225 ± 0.00087. For CAL72 BONE, the surviving fraction was 0.0517 ± 0.0015. CAL120 BREAST showed a surviving fraction of 0.0285 ± 0.0023. Work on CASKI CERVIX yielded a surviving fraction of 0.018. Work on COLO320DM LARGE INTESTINE yielded a surviving fraction of 0.138 ± 0.0052. DU4475 BREAST gave a surviving fraction of 0.0217 ± 0.0015. G292 BONE gave a surviving fraction of 0.121 ± 0.0073. With H23 LUNG the surviving fraction was 0.0193 ± 0.00058. HCC38 BREAST was tested, and the surviving fraction was 0.038 ± 0.0072. Test System HCC1806 BREAST has a surviving fraction of 0.0193 ± 0.00058. HOS BONE showed a surviving fraction of 0.0223 ± 0.00058. Test System HOSMNG BONE has a surviving fraction of 0.0427 ± 0.0038. With HSSYII SYNOVIAL the surviving fraction was 0.0363 ± 0.001. Test System HU09 BONE has a surviving fraction of 0.0163 ± 0.00058. Test System HUO3N1 BONE has a surviving fraction of 0.1357 ± 0.0011. For JIMT1 BREAST, the surviving fraction was 0.066 ± 0.0031. LNCAP PROSTATE showed a surviving fraction of 0.023 ± 0.0035. Test System MDAMB134 BREAST has a surviving fraction of 0.587 ± 0.13. For MDAMB231 BREAST, the surviving fraction was 0.0976 ± 0.004. With MDAMB361 BREAST the surviving fraction was 0.397 ± 0.038. Test System MDAMB436 BREAST has a surviving fraction of 0.142 ± 0.018. For MDAMB468 BREAST, the surviving fraction was 0.0373 ± 0.0067. For MHM BONE, the surviving fraction was 0.16 ± 0.016. In the case of NCIH441 LUNG, the surviving fraction is reported as 0.0587 ± 0.0095. Test System NY BONE has a surviving fraction of 0.02 ± 0.0017. With OS25HAL BONE the surviving fraction was 0.0247 ± 0.0032. OSHN BONE showed a surviving fraction of 0.0367 ± 0.0083. In the case of SKBR3 BREAST, the surviving fraction is reported as 0.0683 ± 0.0042. For SUM149.B1*.S BREAST, the surviving fraction was 0.0262 ± 0.0016.

Same assay, conditions: 1000 nM; exposure time: 5 days
22RV1 PROSTATE was tested, and the surviving fraction was 0.24 ± 0.28. 93VU HEADNECK was tested, and the surviving fraction was 0.061 ± 0.007. Test System A549 LUNG has a surviving fraction of 0.026 ± 0.001. Test System CAL51 BREAST has a surviving fraction of 0.0242 ± 0.0021. CAL72 BONE showed a surviving fraction of 0.0597 ± 0.0011. In the case of CAL120 BREAST, the surviving fraction is reported as 0.0287 ± 0.0014. For CASKI CERVIX, the surviving fraction was 0.0217 ± 0.0011. Test System COLO320DM LARGE INTESTINE has a surviving fraction of 0.127 ± 0.0051. In the case of DU4475 BREAST, the surviving fraction is reported as 0.0247 ± 0.0025. G292 BONE was tested, and the surviving fraction was 0.102 ± 0.0078. Work on H23 LUNG yielded a surviving fraction of 0.0197 ± 0.00058. HCC38 BREAST was tested, and the surviving fraction was 0.0387 ± 0.0025. HCC1806 BREAST showed a surviving fraction of 0.0223 ± 0.00058. Work on HOS BONE yielded a surviving fraction of 0.0237 ± 0.00058. Work on HOSMNG BONE yielded a surviving fraction of 0.0287 ± 0.0015. In the case of HSSYII SYNOVIAL, the surviving fraction is reported as 0.0383 ± 0.0038. Test System HU09 BONE has a surviving fraction of 0.0203 ± 0.0011. HUO3N1 BONE showed a surviving fraction of 0.112 ± 0.0079. JIMT1 BREAST was tested, and the surviving fraction was 0.0517 ± 0.0014. LNCAP PROSTATE was tested, and the surviving fraction was 0.0203 ± 0.0011. In the case of MDAMB134 BREAST, the surviving fraction is reported as 0.518 ± 0.044. MDAMB231 BREAST was tested, and the surviving fraction was 0.0968 ± 0.0048. MDAMB361 BREAST showed a surviving fraction of 0.38 ± 0.041. MDAMB436 BREAST was tested, and the surviving fraction was 0.141 ± 0.022. MDAMB468 BREAST gave a surviving fraction of 0.0367 ± 0.0025. MHM BONE gave a surviving fraction of 0.121 ± 0.0075. In the case of NCIH441 LUNG, the surviving fraction is reported as 0.044 ± 0.003. Test System NY BONE has a surviving fraction of 0.0217 ± 0.0021. Test System OS25HAL BONE has a surviving fraction of 0.037 ± 0.0069. OSHN BONE showed a surviving fraction of 0.034 ± 0.0044. For SKBR3 BREAST, the surviving fraction was 0.0517 ± 0.0049. Work on SUM149.B1*.S BREAST yielded a surviving fraction of 0.0295.

The test systems below were run with CC(=O)c1c(C)c2cnc(Nc3ccc(N4CCNCC4)cn3)nc2n(C2CCCC2)c1=O (assay: area under dose-response curve of surviving fraction (unscaled, Aref=0) (surviving fraction x log10(nM)); higher = more resistant). Details: exposure time: 5 days; dose range 0.5-1000 nM.
How it was run: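 Three screens per tumour cell line were run in 384-well plates at eight inhibitor concentrations from 0.5 to 1000 nM over five days. Surviving fractions, from CellTiter-Glo luminescence normalised to DMSO-only wells, were fitted with 3-parameter logistic curves in the drc R package. The reported area under the curve is the unscaled activity area. It spans log10 dose, and Aref is 0.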
For 22RV1 PROSTATE, the “area under dose-response curve” value was 3.53. In the case of 93VU HEADNECK, the “area under dose-response curve” value is reported as 3.72. With A549 LUNG the “area under dose-response curve” value was 3.48. For CAL51 BREAST, the “area under dose-response curve” value was 3.21. With CAL72 BONE the “area under dose-response curve” value was 3.69. With CAL120 BREAST the “area under dose-response curve” value was 3.17. CASKI CERVIX was tested, and the “area under dose-response curve” value was 3.41. For COLO320DM LARGE INTESTINE, the “area under dose-response curve” value was 3.25. With DU4475 BREAST the “area under dose-response curve” value was 3.51. G292 BONE was tested, and the “area under dose-response curve” value was 3.05. In the case of H23 LUNG, the “area under dose-response curve” value is reported as 3.51. In the case of HCC38 BREAST, the “area under dose-response curve” value is reported as 3.95. In the case of HCC1806 BREAST, the “area under dose-response curve” value is reported as 3.44. With HOS BONE the “area under dose-response curve” value was 3.47.
